Assays:
[1] = target: T1, chimeric protein PPARα-Gal4 (Homo sapiens, UniProt Q07869); test: PPAR activation, Gal4 chimera luciferase reporter in co-transfected CV-1 cells; assay type: cell-based; settings: 50 μM, 18 hours contact
T1 construct: Gal4 (fusion partner); expressed in transfected cells; host or cells: CV-1 cells (monkey kidney cells)
T1 sequence (Q07869 239-466 limits assumed): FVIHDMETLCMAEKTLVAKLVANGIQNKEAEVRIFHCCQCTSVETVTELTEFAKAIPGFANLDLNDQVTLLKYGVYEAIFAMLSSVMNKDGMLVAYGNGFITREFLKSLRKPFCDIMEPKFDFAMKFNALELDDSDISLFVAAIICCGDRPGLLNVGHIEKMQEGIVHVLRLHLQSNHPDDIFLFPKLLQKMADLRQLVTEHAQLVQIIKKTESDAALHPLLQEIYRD
Description: (§1) The measurement of the PPAR activation was performed according to a technique described by Lehmann et al. (1995, J. Biol. Chem. 270: 12953-12956).
(§2) CV-1 cells (monkey kidney cells) are co-transfected with an expression vector for the chimeric proteins PPARα-Gal4 or PPARγ-Gal4 and with a “reporter” plasmid which allows the expression of the luciferase gene placed under the control of a promoter containing Gal4 response elements.
(§3) The cells are inoculated in 96-zwell microplates and co-transfected using a commercial reagent with the reporter plasmid (pG5-tk-pGL3) and the expression vector for the chimeric protein (PPARα-Gal4 or PPARγ-Gal4). After incubating for 4 hours, whole culture medium (containing 10% foetal calf serum) is added to the wells. After 24 hours, the medium is removed and replaced with whole medium containing the test products (50 μM final). The products are left in contact with the cells for 18 hours. The cells are then lysed and the ludferase activity is measured using a luminometer. A PPAR activation factor can then be calculated by means of the activation of the expression of the reporter gene induced by the product (relative to the control cells that have not received any product).

[2] = target: T2, chimeric protein PPARγ-Gal4 (Homo sapiens, UniProt P37231); test: as above; assay type: cell-based; settings: 50 μM, 18 hours contact
T2 construct: Gal4 (fusion partner); expressed in transfected cells; host or cells: CV-1 cells (monkey kidney cells)
T2 sequence (P37231 238-503 limits assumed): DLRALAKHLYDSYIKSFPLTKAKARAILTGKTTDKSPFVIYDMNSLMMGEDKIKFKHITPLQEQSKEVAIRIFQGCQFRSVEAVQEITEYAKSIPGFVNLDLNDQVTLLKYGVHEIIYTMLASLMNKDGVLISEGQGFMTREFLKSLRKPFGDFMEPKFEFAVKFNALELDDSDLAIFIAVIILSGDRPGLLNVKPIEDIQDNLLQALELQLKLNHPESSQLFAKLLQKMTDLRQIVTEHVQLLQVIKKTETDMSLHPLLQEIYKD
Description: as §1, §2, §3

[3] = test system: vector expressing Gal4 alone; test: Luciferase reporter control without PPAR ligand binding region in CV-1 cells; assay type: cell-based; settings: in the presence of the product
Excerpt: CV-1 cells (monkey kidney cells) are co-transfected with an expression vector for the chimeric proteins PPARα-Gal4 or PPARγ-Gal4 and with a “reporter” plasmid which allows the expression of the luciferase gene placed under the control of a promoter containing Gal4 response elements. The cells are inoculated in 96-zwell microplates and co-transfected using a commercial reagent with the reporter plasmid (pG5-tk-pGL3) and the expression vector for the chimeric protein (PPARα-Gal4 or PPARγ-Gal4). After incubating for 4 hours, whole culture medium (containing 10% foetal calf serum) is added to the wells. After 24 hours, the medium is removed and replaced with whole medium containing the test products (50 μM final). The products are left in contact with the cells for 18 hours. The cells are then lysed and the ludferase activity is measured using a luminometer. A PPAR activation factor can then be calculated by means of the activation of the expression of the reporter gene induced by the product (relative to the control cells that have not received any product). […] In the absence of the binding region for the PPARα or γ ligand (vector expressing Gal4 alone), the luciferase activity measured in the presence of this product is zero.

db/db mice = test: Antidiabetic and hypolipidaemiant activity, oral, in db/db mice; assay type: in vivo; settings: oral 20 mg/kg/day for 15 days
Description: The antidiabetic and hypolipidaemiant activity of the compounds was determined orally in db/db mice.
16 week-old db/db mice are treated orally for 15 days with the compound of Example 5 (20 mg/kg/day). Each group studied comprises seven animals. After treatment for 15 days, retro-orbital samples are taken after a mild anaesthesia and fasting for 4 hours.
The following parameters were measured:
Glycaemia assay (glucose oxidase) and assay of the lipid parameters on the sera at D15 (COBAS): triglycerides, total cholesterol (CHOL), the HDL cholesterol (HDL-C) and the free fatty acids (FFA) (BioMérieux and Waco Chemicals assay kit).
The measurements given represent mean values±standard error.

[4] = serum D15, mean ± standard error

With `O=C(O)C(CCSc1ccccc1)Oc1ccc(C(F)(F)F)cc1` (centres unmarked) [Example 5, 4-phenylsulphanyl-2-(4-trifluoromethylphenoxy)butyric acid] the melting point was 108 to 110 °C, the “PPAR activation factor (reporter gene expression relative to control cells)” value [1] was “nine” and the “PPAR activation factor (reporter gene expression relative to control cells)” value [2] was “six”. The “luciferase activity in the absence of the binding region for the PPARα or γ ligand” value [3] was “zero”, the “CHOL, % variation relative to the control” value (db/db mice; D15, * p < 0.05 vs control) was 47* % and the “FFA, % variation relative to the control” value (db/db mice; D15, * p < 0.05 vs control) was −38* %. For the same compound, the “Glycaemia, % variation relative to the control” value (db/db mice; D15, * p < 0.05 vs control) was −59* %, the “HDL-C, % variation relative to the control” value (db/db mice; D15, * p < 0.05 vs control) was 36* % and the “Triglycerides, % variation relative to the control” value (db/db mice; D15, * p < 0.05 vs control) was −47* %. For the same compound, the Glycaemia (db/db mice; D15, fasting 4 hours, mean ± standard error) was 11.1 ± 3.3 mM, the “CHOL (total cholesterol)” value (db/db mice; [4]) was 5.4 ± 0.9 mM and the “FFA (free fatty acids)” value (db/db mice; [4]) was 0.4 ± 0.0 mM. The HDL-C (db/db mice; [4]) was 4.3 ± 0.6 mM and the Triglycerides (db/db mice; [4]) was 0.7 ± 0.1 mM.
